test system: LXRα and/or LXRβ; experiment: LXR/LXRE co-transfection assay (luciferase reporter, CV-1 cells); type: cell-based, human; details: IC50 or EC50 for LXR (LXRα and/or LXRβ, not distinguished), tested as described in Example 109, CV-1 cells
Summary of the method: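 Transient co-transfection of CV-1 cells with full-length human LXRα or LXRβ plus RXRα expression plasmids and an LXREx1-Tk-luciferase reporter; compounds (10 μM screen, ≤1% DMSO) incubated 20 h at 37 °C. Luminescence read after lysis; EC50/IC50 from 8-point half-log curves, efficacy relative to a high control or DMSO.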

| Structure (SMILES) | EC50 [nM] |
| --- | --- |
| CC(CO)NC(=O)c1cc(-c2ccc(-c3cccc(S(C)(=O)=O)c3)s2)n(-c2ccccc2Cl)n1 (stereo not shown) [Example 1270, 1-(2-chlorophenyl)-N-(2-hydroxy-1-methylethyl)-5-{5-[3-(methylsulfonyl)phenyl]-2-thienyl}-1H-pyrazole-3-carboxamide] | 1000 to 10000 |
| CS(=O)(=O)c1cccc(-c2ccc(-c3cc(C(=O)N4CCC(C(=O)O)CC4)nn3-c3ccccc3Cl)s2)c1 [Example 592, 1-(1-(2-chlorophenyl)-5-(5-(3-(methylsulfonyl)phenyl)thiophen-2-yl)-1H-pyrazole-3-carbonyl)piperidine-4-carboxylic acid] | 1000 to 10000 |
| CC(C)(O)c1cc(-c2ccc(-c3ccc(C=O)s3)cc2)n(-c2ccccc2Cl)n1 [Example 1289, 5-{4-[1-(2-chlorophenyl)-3-(1-hydroxy-1-methylethyl)-1H-pyrazol-5-yl]phenyl}thiophene-2-carbaldehyde] | 1000 to 10000 |
| C/C(=N\O)c1cc(-c2ccc(-c3cccc(S(C)(=O)=O)c3)s2)n(-c2ccccc2Cl)n1 [Example 1176, (1E)-1-[1-(2-chlorophenyl)-5-{5-[3-(methylsulfonyl)phenyl]-2-thienyl}-1H-pyrazol-3-yl]ethanone oxime] | < 1000 |
| NS(=O)(=O)c1cccc(-c2ccc(-c3cc(C(F)(F)F)nn3-c3ccccc3Cl)cc2)c1 [Example 1137, 4′-[1-(2-chlorophenyl)-3-(trifluoromethyl)-1H-pyrazol-5-yl]biphenyl-3-sulfonamide] | < 1000 |
| CC(C)(O)c1nn(-c2ccccc2Cl)c(-c2ccc(-c3cccc(S(C)(=O)=O)c3)s2)c1Cl [Example 1294, 2-[4-chloro-1-(2-chlorophenyl)-5-{5-[3-(methylsulfonyl)phenyl]-2-thienyl}-1H-pyrazol-3-yl]propan-2-ol] | < 1000 |

Continued, values first:

| EC50 [nM] | Structure (SMILES) |
| --- | --- |
| 1000 to 10000 | Cc1cc(-n2nc(C(C)(C)O)cc2-c2c(Cl)cccc2Cl)ccc1-c1cccc(S(C)(=O)=O)c1 [Example 1417, 2-(5-(2,6-dichlorophenyl)-1-(2-methyl-3′-(methylsulfonyl)biphenyl-4-yl)-1H-pyrazol-3-yl)propan-2-ol] |
| < 1000 | CC(C)(O)c1nn(-c2cccc(F)c2Cl)c(-c2ccc(-c3cccc(S(C)(=O)=O)c3)s2)c1Cl [Example 1371, 2-[4-chloro-1-(2-chloro-3-fluorophenyl)-5-{5-[3-(methylsulfonyl)phenyl]-2-thienyl}-1H-pyrazol-3-yl]propan-2-ol] |
| < 1000 | CC(C)(O)c1nn(-c2c(Cl)cccc2Cl)c(-c2ccc(-c3cccc(S(C)(=O)=O)c3)s2)c1Cl [Example 1348, 2-[4-chloro-1-(2,6-dichlorophenyl)-5-{5-[3-(methylsulfonyl)phenyl]-2-thienyl}-1H-pyrazol-3-yl]propan-2-ol] |
| < 1000 | COC(=O)c1cc(-c2ccccc2Cl)n(-c2ccc(-c3cccc(S(C)(=O)=O)c3)cc2)n1 [Example 1218, methyl 5-(2-chlorophenyl)-1-[3′-(methylsulfonyl)biphenyl-4-yl]-1H-pyrazole-3-carboxylate] |
| 1000 to 10000 | CS(=O)(=O)c1cccc(-c2ccc(-c3cc(C(=O)NCC(F)(F)F)nn3-c3ncccc3C(F)(F)F)s2)c1 [Example 1236, 5-{5-[3-(methylsulfonyl)phenyl]-2-thienyl}-N-(2,2,2-trifluoroethyl)-1-[3-(trifluoromethyl)pyridin-2-yl]-1H-pyrazole-3-carboxamide] |
| < 1000 | Cc1c(Cl)cccc1-n1nc(C(C)(C)O)cc1-c1ccc(-c2cccc(S(C)(=O)=O)c2)s1 [Example 1340, 2-[1-(3-chloro-2-methylphenyl)-5-{5-[3-(methylsulfonyl)phenyl]-2-thienyl}-1H-pyrazol-3-yl]propan-2-ol] |
| < 1000 | CN(Cc1cc(-c2ccc(-c3cccc(S(C)(=O)=O)c3)s2)n(-c2ccccc2Cl)n1)Cc1ncco1 [Example 1147, 1-[1-(2-chlorophenyl)-5-{5-[3-(methylsulfonyl)phenyl]-2-thienyl}-1H-pyrazol-3-yl]-N-methyl-N-(1,3-oxazol-2-ylmethyl)methanamine] |

Source: patent US8703805B2 (Exelixis Patent Company LLC, priority 2005, dated 2014)
